The results in this text go back to patent publication US20240067693A1, “POLYPEPTIDES AND USES THEREOF” (MEDIMMUNE LIMITED, priority 2020, published 2024).

Numbered stars: 1 amine (or outer) side, 2 acyl side, 3 side chain; on linkers, the order of the positions; unused ones are H or OH. Bridge positions count the residues as written; N and C are the ends. Square brackets hold non-standard residues; d marks the D form. Side chains are listed from the residue outwards. Peptide text beside a SMILES is read from it. * marks the point of attachment. C18 diacid = O=C(O)CCCCCCCCCCCCCCCCC(=O)*; γGlu = O=C(O)[C@H](CCC(=O)[*:2])N[*:1]; Aib = CC(C)(N)C(=O)O A value given as a limit tells only on which side of the number the result lay.

For data set [1], the target named is T1, human amylin receptor (calcitonin receptor co-expressed with receptor activity modifying protein, RAMP3) (hAMYR3) (Homo sapiens, UniProt O60896+P30988).
T1 construct: expressed in transfected cells
T1 sequence (P30988 25-474): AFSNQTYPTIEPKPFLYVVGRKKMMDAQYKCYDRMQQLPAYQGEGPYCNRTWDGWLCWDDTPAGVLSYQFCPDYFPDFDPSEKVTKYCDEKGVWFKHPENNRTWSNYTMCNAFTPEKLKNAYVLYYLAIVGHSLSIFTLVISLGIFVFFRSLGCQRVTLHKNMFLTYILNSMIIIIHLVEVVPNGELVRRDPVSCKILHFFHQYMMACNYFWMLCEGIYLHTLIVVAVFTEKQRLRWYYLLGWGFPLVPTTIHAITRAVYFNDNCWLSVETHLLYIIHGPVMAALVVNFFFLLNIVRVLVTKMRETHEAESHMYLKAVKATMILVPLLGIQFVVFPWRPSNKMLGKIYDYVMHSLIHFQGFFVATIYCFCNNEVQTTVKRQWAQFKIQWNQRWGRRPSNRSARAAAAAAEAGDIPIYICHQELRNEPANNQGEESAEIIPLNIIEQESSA
T1 sequence (O60896 24-148 partner): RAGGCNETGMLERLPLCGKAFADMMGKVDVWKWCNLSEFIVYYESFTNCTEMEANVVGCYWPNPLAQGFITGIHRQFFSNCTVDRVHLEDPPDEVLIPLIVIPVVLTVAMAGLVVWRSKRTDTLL
As to the kind of experiment: cAMP production in 1321N1 cells with stable recombinant expression of human amylin receptor (hAMYR3). The format is cell-based. An outline of the steps:
(§1)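 EC50 values come from 4-parameter logistic fits of HTRF cAMP signal, normalised to maximal calcitonin or amylin effect. Peptides were tested in duplicate for 30 min at RT in IBMX-containing (0.5 mM) BSA/HEPES buffer pH 7.4 on stable 1321N1 (human CTR, AMYR3) or HEK (rat CTR, AMYR3) lines.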

Data set [2] has as its target T2, human calcitonin receptor (hCTR) (Homo sapiens, UniProt P30988).
T2 construct: expressed in transfected cells
T2 sequence (P30988 25-474): T1 sequence (P30988 25-474)
As to the kind of experiment: cAMP production in 1321N1 cells with stable recombinant expression of human calcitonin receptor (hCTR). The format is cell-based. The conditions noted are these: cAMP, 1321N1 cells, assay buffer with 0.1% BSA; read-out: EC50 (pM) hCTR. In a few lines: as §1
(Cyclic AMP is a second messenger, typically raised through Gs and lowered through Gi signalling.)

The target of data set [3] is T3, rat calcitonin receptor (rat CTR) (Rattus norvegicus, UniProt P32214).
T3 construct: expressed in transfected cells
T3 sequence (P32214 25-516): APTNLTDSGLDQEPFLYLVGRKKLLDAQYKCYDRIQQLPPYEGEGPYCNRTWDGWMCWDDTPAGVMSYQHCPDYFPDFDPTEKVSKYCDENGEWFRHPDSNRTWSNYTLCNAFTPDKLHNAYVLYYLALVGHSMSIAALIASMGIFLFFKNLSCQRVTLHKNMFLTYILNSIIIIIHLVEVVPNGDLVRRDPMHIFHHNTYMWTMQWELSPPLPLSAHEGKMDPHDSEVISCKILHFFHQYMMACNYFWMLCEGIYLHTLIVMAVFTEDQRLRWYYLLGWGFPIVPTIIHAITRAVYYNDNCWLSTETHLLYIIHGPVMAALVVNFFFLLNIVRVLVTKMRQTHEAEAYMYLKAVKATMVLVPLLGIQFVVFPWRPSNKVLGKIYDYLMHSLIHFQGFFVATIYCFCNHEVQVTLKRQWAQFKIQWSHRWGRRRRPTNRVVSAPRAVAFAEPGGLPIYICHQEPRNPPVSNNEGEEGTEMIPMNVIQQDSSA
The data set can be described thus: cAMP production in HEK cells with stable recombinant expression of rat calcitonin receptor (rat CTR). The format is cell-based. The settings on record: assay buffer with 0.1% BSA. In a few lines:
as §1

Data set [4] is described as follows: Thioflavin T fibrillation assay. The format is physicochemical. The settings on record: ThT fibrillation assay; peptide 1 mg/mL in 25 mM sodium acetate buffer pH 4.0; 6 days at 37 °C with shaking; >144 h = no increase. In a few lines:
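Peptides at 1 mg/mL in 25 mM sodium acetate pH 4.0 with ThT (from 0.25 mM stock), incubated 6 days at 37 °C with intermittent orbital shaking at 500–750 rpm. Fluorescence (ex 444/em 480 nm) read every 30 min; value is average time to a rise in baseline-corrected signal.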

As a reminder, the EC50 is the concentration that produces a half-maximal response.

On to `CC[C@H](C)[C@H](NC(=O)[C@@H]1CCCN1C(=O)CNC(=O)[C@H](Cc1ccccc1)NC(=O)[C@H](CC(N)=O)NC(=O)[C@H](CC(N)=O)NC(=O)[C@H](CO)NC(=O)[C@H](CO)NC(=O)[C@H](Cc1c[nH]cn1)NC(=O)C(C)(C)NC(=O)[C@H](CC(C)C)NC(=O)[C@H](Cc1ccccc1)NC(=O)[C@H](CC(N)=O)NC(=O)[C@H](C)NC(=O)[C@H](CC(C)C)NC(=O)[C@H](CCCNC(=N)N)NC(=O)[C@H](CCC(N)=O)NC(=O)[C@@H](NC(=O)[C@H](C)NC(=O)[C@@H]1CSSC[C@H](NC(=O)[C@H](CCCCN)NC(=O)[C@@H](N)CCCCNC(=O)CC[C@H](NC(=O)CCCCCCCCCCCCCCCCC(=O)O)C(=O)O)C(=O)N[C@@H](CC(N)=O)C(=O)N[C@@H]([C@@H](C)O)C(=O)N[C@@H](C)C(=O)N[C@@H]([C@@H](C)O)C(=O)N1)[C@@H](C)O)C(=O)N[C@@H](CC(C)C)C(=O)N1CCC[C@H]1C(=O)N1CCC[C@H]1C(=O)N[C@H](C(=O)N[C@@H](CC(N)=O)C(=O)N[C@H](C(=O)NCC(=O)N[C@@H](CO)C(=O)N[C@@H](CC(N)=O)C(=O)N[C@H](C(=O)N[C@@H](Cc1ccc(O)cc1)C(N)=O)[C@@H](C)O)C(C)C)[C@@H](C)O` [Peptide 129] (H-K([γGlu-C18 diacid])KCNTATCATQRLANFL[Aib]HSSNNFGPILPPTNVGSNTY-NH2; disulfide 3-8; N-terminus assumed), for which, in data set [1] (EC50 hCTR / EC50 hAMYR3), the “Ratio (selectivity hAMYR vs hCTR, ratio of EC50 values at the two receptors)” value was found to be 10.4. The 50% effective concentration (EC50) came to 553 pM in data set [1] (cAMP, 1321N1 cells, assay buffer with 0.1% BSA, read-out: EC50 (pM) hAMYR3); 5750 pM in data set [2]; 2870 pM in data set [3]. Further, in data set [4], the “Time taken to detect increase in fluorescence intensity” value is listed as above 144 h.
